Key:
Assay in all cases: cells
COR-L23 = format: functional, cell-based; settings: Homo sapiens;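 also: cell viability assay measuring how strongly compounds suppress growth of COR-L23 cells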
Description: SANGER: Inhibition of human COR-L23 cell growth in a cell viability assay.

CaR-1 = format: functional, cell-based; settings: Homo sapiens;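 also: growth inhibition of human CaR-1 cancer cells, read out with a cell viability assay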
Description: SANGER: Inhibition of human CaR-1 cell growth in a cell viability assay.

Daoy = format: functional, cell-based; settings: Homo sapiens;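 also: daoy cell growth inhibition, read out as cell viability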
Description: SANGER: Inhibition of human Daoy cell growth in a cell viability assay.

EFO-27 = format: functional, cell-based; settings: Homo sapiens;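 also: growth inhibition of EFO-27 cells, read out with a cell viability assay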
Description: SANGER: Inhibition of human EFO-27 cell growth in a cell viability assay.

FaDu = format: functional, cell-based; settings: Homo sapiens;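 also: cell viability readout of growth inhibition in FaDu cells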
Description: SANGER: Inhibition of human FADU cell growth in a cell viability assay.

HCC1806 = format: functional, cell-based; settings: Homo sapiens;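 also: growth inhibition of the cancer cell line, determined with a cell viability assay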
Description: SANGER: Inhibition of human HCC1806 cell growth in a cell viability assay.

KYSE-140 = format: functional, cell-based; settings: Homo sapiens;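 also: cell viability assay measuring growth inhibition in human KYSE-140 cells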
Description: SANGER: Inhibition of human KYSE-140 cell growth in a cell viability assay.

KYSE-180 = format: functional, cell-based; settings: Homo sapiens;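 also: growth inhibition of KYSE-180 cells, read out with a cell viability assay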
Description: SANGER: Inhibition of human KYSE-180 cell growth in a cell viability assay.

KYSE-270 = format: functional, cell-based; settings: Homo sapiens;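 also: cell growth inhibition measured with a viability assay in the human KYSE-270 line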
Description: SANGER: Inhibition of human KYSE-270 cell growth in a cell viability assay.

MDA-MB-231 = format: functional, cell-based; settings: Homo sapiens
Description: SANGER: Inhibition of human MDA-MB-231 cell growth in a cell viability assay.

MDA-MB-453 = format: functional, cell-based; settings: Homo sapiens
Description: SANGER: Inhibition of human MDA-MB-453 cell growth in a cell viability assay.

MKN-28 = format: functional, cell-based; settings: Homo sapiens;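 also: cell viability assay read-out, IC50 reflects suppression of growth of human MKN-28 cells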
Description: SANGER: Inhibition of human MKN28 cell growth in a cell viability assay.

NCI-H1563 = format: functional, cell-based; settings: Homo sapiens;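 also: growth inhibition of human NCI-H1563 cells, read out with a cell viability assay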
Description: SANGER: Inhibition of human NCI-H1563 cell growth in a cell viability assay.

NCI-H1573 = format: functional, cell-based; settings: Homo sapiens;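 also: growth inhibition of NCI-H1573 cells, read out with a cell viability assay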
Description: SANGER: Inhibition of human NCI-H1573 cell growth in a cell viability assay.

NCI-H2052 = format: functional, cell-based; settings: Homo sapiens;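 also: growth inhibition of NCI-H2052 cells, read out with a cell viability assay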
Description: SANGER: Inhibition of human NCI-H2052 cell growth in a cell viability assay.

NCI-H2342 = format: functional, cell-based; settings: Homo sapiens;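 also: growth inhibition of the cancer cell line, determined with a cell viability assay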
Description: SANGER: Inhibition of human NCI-H2342 cell growth in a cell viability assay.

NCI-H292 = format: functional, cell-based; settings: Homo sapiens;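 also: growth inhibition of NCI-H292 cells, read out with a cell viability assay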
Description: SANGER: Inhibition of human NCI-H292 cell growth in a cell viability assay.

NCI-H441 = format: functional, cell-based; settings: Homo sapiens;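 also: growth inhibition of NCI-H441 cells, read out with a cell viability assay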
Description: SANGER: Inhibition of human NCI-H441 cell growth in a cell viability assay.

NCI-H520 = format: functional, cell-based; settings: Homo sapiens;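 also: growth inhibition of NCI-H520 cells, measured by a cell viability assay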
Description: SANGER: Inhibition of human NCI-H520 cell growth in a cell viability assay.

NCI-H522 = format: functional, cell-based; settings: Homo sapiens;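 also: cell viability assay measuring growth inhibition of human NCI-H522 cells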
Description: SANGER: Inhibition of human NCI-H522 cell growth in a cell viability assay.

OE33 = format: functional, cell-based; settings: Homo sapiens;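 also: growth inhibition of human OE33 cells, measured by a cell viability assay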
Description: SANGER: Inhibition of human OE33 cell growth in a cell viability assay.

PC-14 = format: functional, cell-based; settings: Homo sapiens;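 also: cell viability assay measuring inhibition of PC-14 cell growth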
Description: SANGER: Inhibition of human PC-14 cell growth in a cell viability assay.

PC-3 = format: functional, cell-based; settings: Homo sapiens;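 also: cell viability assay measuring growth inhibition of PC-3 cells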
Description: SANGER: Inhibition of human PC-3 cell growth in a cell viability assay.

PFSK-1 = format: functional, cell-based; settings: Homo sapiens;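 also: cell viability assay measuring how strongly compounds suppress growth of human PFSK-1 cells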
Description: SANGER: Inhibition of human PFSK-1 cell growth in a cell viability assay.

RD = format: functional, cell-based; settings: Homo sapiens
Description: SANGER: Inhibition of human RD cell growth in a cell viability assay.

RERF-LC-MS = format: functional, cell-based; settings: Homo sapiens;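 also: growth inhibition of human RERF-LC-MS cells, read out by a cell viability assay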
Description: SANGER: Inhibition of human RERF-LC-MS cell growth in a cell viability assay.

SCC-4 = format: functional, cell-based; settings: Homo sapiens;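 also: growth inhibition of human SCC-4 cells, read out as cell viability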
Description: SANGER: Inhibition of human SCC-4 cell growth in a cell viability assay.

SK-HEP1 = format: functional, cell-based, SK-HEP-1; settings: Homo sapiens;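 also: cell viability readout used to quantify reduction in proliferation of human SK-HEP-1 cells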
Description: SANGER: Inhibition of human SK-HEP-1 cell growth in a cell viability assay.

SNU-387 = format: functional, cell-based; settings: Homo sapiens
Description: SANGER: Inhibition of human SNU-387 cell growth in a cell viability assay.

SW1463 = format: functional, cell-based; settings: Homo sapiens;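 also: growth inhibition of SW1463 cells, determined with a cell viability assay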
Description: SANGER: Inhibition of human SW1463 cell growth in a cell viability assay.

SW948 = format: functional, cell-based; settings: Homo sapiens;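 also: growth inhibition of SW948 cells, read out with a cell viability assay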
Description: SANGER: Inhibition of human SW948 cell growth in a cell viability assay.

AN3-CA = format: functional, cell-based; settings: Homo sapiens;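 also: growth inhibition of human AN3-CA cells measured by a cell viability assay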
Description: SANGER: Inhibition of human AN3-CA cell growth in a cell viability assay.

AU565 = format: functional, cell-based; settings: Homo sapiens;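 also: cell viability assay measuring growth inhibition of human AU565 cells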
Description: SANGER: Inhibition of human AU565 cell growth in a cell viability assay.

C3A = format: functional, cell-based; settings: Homo sapiens;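 also: growth inhibition of C3A human cells, quantified with a cell viability readout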
Description: SANGER: Inhibition of human C3A cell growth in a cell viability assay.

CAL-54 = format: functional, cell-based; settings: Homo sapiens;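 also: growth inhibition of CAL-54 cells, read out by a viability measurement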
Description: SANGER: Inhibition of human CAL-54 cell growth in a cell viability assay.

CAL-85-1 = format: functional, cell-based; settings: Homo sapiens;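 also: growth inhibition of human CAL-85-1 cells, read out with a cell viability assay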
Description: SANGER: Inhibition of human CAL-85-1 cell growth in a cell viability assay.

UACC-893 = format: functional, cell-based; settings: Homo sapiens
Description: SANGER: Inhibition of human UACC-893 cell growth in a cell viability assay.

UMC-11 = format: functional, cell-based; settings: Homo sapiens;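 also: growth inhibition of UMC-11 cells, read out with a cell viability assay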
Description: SANGER: Inhibition of human UMC-11 cell growth in a cell viability assay.

YAPC = format: functional, cell-based; settings: Homo sapiens;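 also: growth inhibition of YAPC cells, measured with a cell viability assay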
Description: SANGER: Inhibition of human YAPC cell growth in a cell viability assay.

COLO-680N = format: functional, cell-based; settings: Homo sapiens;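 also: cell viability assay used to measure inhibition of COLO-680N cell growth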
Description: SANGER: Inhibition of human COLO-680N cell growth in a cell viability assay.

OVCAR-5 = format: functional, cell-based; settings: Homo sapiens;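 also: growth inhibition of human OVCAR-5 cells, read out with a cell viability assay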
Description: SANGER: Inhibition of human OVCAR-5 cell growth in a cell viability assay.

HCC1599 = format: functional, cell-based, Homo sapiens; settings: Homo sapiens, HCC1599;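 also: growth inhibition of HCC1599 cells, read out in a cell viability assay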
Description: SANGER: Inhibition of human HCC1599 cell growth in a cell viability assay.

Kasumi 1 = format: functional, cell-based, Homo sapiens; settings: Homo sapiens, Kasumi 1;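 also: growth inhibition of human Kasumi-1 cells, read out by a cell viability assay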
Description: SANGER: Inhibition of human KASUMI-1 cell growth in a cell viability assay.

LB373-MEL-D = format: functional, cell-based, Homo sapiens; settings: Homo sapiens, LB373-MEL-D;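 also: growth inhibition of the cell line, read out in a cell viability assay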
Description: SANGER: Inhibition of human LB373-MEL-D cell growth in a cell viability assay.

LOUCY = format: functional, cell-based, Homo sapiens; settings: Homo sapiens, LOUCY;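 also: growth inhibition of human LOUCY cells, read out with a cell viability assay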
Description: SANGER: Inhibition of human LOUCY cell growth in a cell viability assay.

LP-1 = format: functional, cell-based, Homo sapiens; settings: Homo sapiens, LP-1;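 also: growth inhibition of human LP-1 cells, with the read-out taken from a cell viability assay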
Description: SANGER: Inhibition of human LP-1 cell growth in a cell viability assay.

LU-165 = format: functional, cell-based, Homo sapiens; settings: Homo sapiens, LU-165
Description: SANGER: Inhibition of human LU-165 cell growth in a cell viability assay.

MC-CAR = format: functional, cell-based, Homo sapiens; settings: Homo sapiens, MC-CAR;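 also: growth inhibition of the human MC-CAR cell line, read out by a cell viability assay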
Description: SANGER: Inhibition of human MC-CAR cell growth in a cell viability assay.

NALM-6 = format: functional, cell-based, Homo sapiens; settings: Homo sapiens, NALM-6;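 also: growth inhibition of NALM-6 cells, read out with a cell viability assay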
Description: SANGER: Inhibition of human NALM-6 cell growth in a cell viability assay.

NCI-H1522 = format: functional, cell-based, Homo sapiens; settings: Homo sapiens, NCI-H1522;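 also: growth inhibition of NCI-H1522 cells, read out with a cell viability assay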
Description: SANGER: Inhibition of human NCI-H1522 cell growth in a cell viability assay.

NCI-H187 = format: functional, cell-based, Homo sapiens; settings: Homo sapiens, NCI-H187;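 also: growth inhibition of NCI-H187 cells, read out as cell viability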
Description: SANGER: Inhibition of human NCI-H187 cell growth in a cell viability assay.

RPMI-6666 = format: functional, cell-based, Homo sapiens; settings: Homo sapiens, RPMI-6666
Description: SANGER: Inhibition of human RPMI-6666 cell growth in a cell viability assay.

SUP-T1 = format: functional, cell-based, Homo sapiens; settings: Homo sapiens, SUP-T1;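 also: growth inhibition of human SUP-T1 cells, read out as cell viability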
Description: SANGER: Inhibition of human SUP-T1 cell growth in a cell viability assay.

BC-3 = format: functional, cell-based, Homo sapiens; settings: Homo sapiens, BC-3;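 also: cell viability assay measuring growth inhibition of human BC-3 cells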
Description: SANGER: Inhibition of human BC-3 cell growth in a cell viability assay.

BL-41 = format: functional, cell-based; settings: Homo sapiens;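 also: growth inhibition of human BL-41 cells, read out with a cell viability assay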
Description: SANGER: Inhibition of human BL-41 cell growth in a cell viability assay.

CA46 = format: functional, cell-based, Homo sapiens; settings: Homo sapiens, CA46;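 also: growth inhibition of human CA46 cells, read out by a cell viability assay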
Description: SANGER: Inhibition of human CA46 cell growth in a cell viability assay.

U-698-M = format: functional, cell-based, Homo sapiens; settings: Homo sapiens, U-698-M
Description: SANGER: Inhibition of human U-698-M cell growth in a cell viability assay.

Measured: IC50

O=C1NC(=O)c2c1c(-c1ccccc1Cl)cc1[nH]c3ccc(O)cc3c21
1480 nM: KYSE-270
454 nM: NCI-H292
752 nM: COR-L23
not listed: OVCAR-5 | HCC1599 | Kasumi 1 | LB373-MEL-D | LOUCY | LP-1 | LU-165 | MC-CAR | NALM-6 | NCI-H1522 | NCI-H187 | RPMI-6666 | SUP-T1 | BC-3 | BL-41 | CA46 | U-698-M
> 2000 nM: all other assays above

O=C(NCCCNc1nc(Nc2cccc(NC(=O)N3CCCC3)c2)ncc1I)c1cccs1 [BX-795]
2900 nM: UMC-11
1640 nM: AN3-CA
4020 nM: COR-L23
2970 nM: SK-HEP1
3810 nM: SNU-387
2280 nM: OVCAR-5
4170 nM: PC-3
3720 nM: KYSE-140
2580 nM: NCI-H292
not listed: HCC1599 | Kasumi 1 | LB373-MEL-D | LOUCY | LP-1 | LU-165 | MC-CAR | NALM-6 | NCI-H1522 | NCI-H187 | RPMI-6666 | SUP-T1 | BC-3 | BL-41 | CA46 | U-698-M
> 5000 nM: all other assays above

Cc1ccc(NC(=O)c2ccc(CN3CCN(C)CC3)cc2)cc1Nc1nccc(-c2cccnc2)n1 [IMATINIB]
> 2000 nM: HCC1599 | Kasumi 1 | LB373-MEL-D | LOUCY | LP-1 | LU-165 | MC-CAR | NALM-6 | NCI-H1522 | NCI-H187 | RPMI-6666 | SUP-T1 | BC-3 | BL-41 | CA46 | U-698-M
